From ChEMBL document CHEMBL1141638, “Influence of sulfur oxidation state and steric bulk upon trifluoromethyl ketone (TFK) binding kinetics to carboxylesterases and fatty acid amide hydrolase (FAAH)” (Bioorg Med Chem, 2008)

Legend:
[1] = target: T1, Liver carboxylesterase (Sus scrofa, UniProt Q29550); test: Inhibition of pig liver carboxylesterase after 5 mins
T1 sequence (Q29550 whole entry): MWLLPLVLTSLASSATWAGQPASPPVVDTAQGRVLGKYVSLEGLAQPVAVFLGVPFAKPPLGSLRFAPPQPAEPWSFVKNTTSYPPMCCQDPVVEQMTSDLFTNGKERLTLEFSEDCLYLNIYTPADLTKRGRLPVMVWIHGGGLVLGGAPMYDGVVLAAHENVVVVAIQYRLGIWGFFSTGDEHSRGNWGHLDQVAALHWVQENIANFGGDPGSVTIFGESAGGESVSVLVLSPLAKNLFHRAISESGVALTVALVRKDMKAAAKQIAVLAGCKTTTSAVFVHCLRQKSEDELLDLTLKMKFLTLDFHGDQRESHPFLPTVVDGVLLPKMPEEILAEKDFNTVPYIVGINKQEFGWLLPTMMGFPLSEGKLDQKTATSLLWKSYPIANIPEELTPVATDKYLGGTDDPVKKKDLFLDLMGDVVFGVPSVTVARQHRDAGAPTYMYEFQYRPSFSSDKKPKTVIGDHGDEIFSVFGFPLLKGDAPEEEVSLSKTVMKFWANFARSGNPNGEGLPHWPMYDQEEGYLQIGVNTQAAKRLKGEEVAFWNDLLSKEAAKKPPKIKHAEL

[2] = target: T2, Fatty-acid amide hydrolase 1 (Homo sapiens, UniProt O00519); test: Inhibition of human recombinant FAAH after 15 mins
T2 sequence (O00519 whole entry): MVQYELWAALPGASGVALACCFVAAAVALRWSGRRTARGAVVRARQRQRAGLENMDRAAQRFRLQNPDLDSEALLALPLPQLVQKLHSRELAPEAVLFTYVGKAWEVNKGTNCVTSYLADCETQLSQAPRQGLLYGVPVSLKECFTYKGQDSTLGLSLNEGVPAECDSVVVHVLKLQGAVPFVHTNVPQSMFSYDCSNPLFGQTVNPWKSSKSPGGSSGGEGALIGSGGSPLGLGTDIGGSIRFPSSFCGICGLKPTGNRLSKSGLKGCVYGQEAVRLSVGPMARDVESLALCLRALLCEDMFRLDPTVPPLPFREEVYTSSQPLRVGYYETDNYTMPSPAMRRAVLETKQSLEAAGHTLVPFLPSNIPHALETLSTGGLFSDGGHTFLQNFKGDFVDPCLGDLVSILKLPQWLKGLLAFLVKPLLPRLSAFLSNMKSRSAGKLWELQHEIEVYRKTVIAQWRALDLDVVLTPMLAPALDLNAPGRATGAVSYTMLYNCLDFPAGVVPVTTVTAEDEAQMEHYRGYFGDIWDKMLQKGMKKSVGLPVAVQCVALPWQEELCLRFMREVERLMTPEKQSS

[3] = target: T2, Fatty-acid amide hydrolase 1; test: Inhibition of human recombinant FAAH after 5 mins
[4] = target: T1, Liver carboxylesterase; test: Inhibition of pig liver carboxylesterase after 15 mins
[5] = Inhibition of rabbit liver carboxylesterase after 15 mins; design: species or system Oryctolagus cuniculus
[6] = Inhibition of rabbit liver carboxylesterase after 5 mins; design: species or system Oryctolagus cuniculus
[7] = target: T3, Liver carboxylesterase 1 (Homo sapiens, UniProt P23141); test: Inhibition of human recombinant carboxylesterase 1 after 15 mins
T3 sequence (P23141 whole entry): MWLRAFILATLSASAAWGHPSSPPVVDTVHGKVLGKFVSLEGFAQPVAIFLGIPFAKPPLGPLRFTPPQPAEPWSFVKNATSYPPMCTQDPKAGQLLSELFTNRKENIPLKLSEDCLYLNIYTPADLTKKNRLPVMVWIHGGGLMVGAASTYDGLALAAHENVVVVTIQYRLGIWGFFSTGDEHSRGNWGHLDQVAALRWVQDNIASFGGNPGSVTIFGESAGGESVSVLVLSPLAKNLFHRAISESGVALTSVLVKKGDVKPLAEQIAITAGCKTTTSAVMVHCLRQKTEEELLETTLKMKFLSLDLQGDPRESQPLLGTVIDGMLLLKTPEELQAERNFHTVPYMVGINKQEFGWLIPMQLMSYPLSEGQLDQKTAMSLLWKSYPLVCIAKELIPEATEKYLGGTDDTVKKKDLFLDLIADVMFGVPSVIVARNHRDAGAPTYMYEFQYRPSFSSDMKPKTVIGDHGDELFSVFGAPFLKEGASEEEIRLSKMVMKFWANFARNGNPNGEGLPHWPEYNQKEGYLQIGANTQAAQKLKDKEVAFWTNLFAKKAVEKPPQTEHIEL

[8] = target: T3, Liver carboxylesterase 1; test: Inhibition of human recombinant carboxylesterase 1 after 5 mins
[9] = target: T4, Juvenile hormone esterase (Manduca sexta, UniProt Q9GPG0); test: Inhibition of Manduca sexta juvenile hormone esterase
T4 sequence (Q9GPG0 whole entry): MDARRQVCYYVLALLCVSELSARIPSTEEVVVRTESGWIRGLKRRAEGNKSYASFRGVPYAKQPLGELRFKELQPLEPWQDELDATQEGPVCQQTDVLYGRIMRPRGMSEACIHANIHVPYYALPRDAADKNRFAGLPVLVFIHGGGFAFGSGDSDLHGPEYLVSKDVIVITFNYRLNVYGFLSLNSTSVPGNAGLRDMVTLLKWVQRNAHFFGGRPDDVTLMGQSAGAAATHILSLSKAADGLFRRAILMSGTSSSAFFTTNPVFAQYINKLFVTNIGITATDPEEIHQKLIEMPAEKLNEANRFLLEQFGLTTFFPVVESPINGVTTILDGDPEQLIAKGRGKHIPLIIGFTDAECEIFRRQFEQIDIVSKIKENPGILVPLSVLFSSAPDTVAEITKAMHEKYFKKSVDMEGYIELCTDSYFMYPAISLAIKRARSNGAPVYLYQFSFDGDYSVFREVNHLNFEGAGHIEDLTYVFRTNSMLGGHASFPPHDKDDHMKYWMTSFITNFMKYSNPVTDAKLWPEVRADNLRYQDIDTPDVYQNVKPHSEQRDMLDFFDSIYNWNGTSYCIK

[10] = Inhibition of Manduca sexta juvenile hormone esterase […] mutant

SMILES	IC50 [1] [µM]	IC50 [2] [µM]	IC50 [3] [µM]	IC50 [4] [µM]	IC50 [5] [µM]	IC50 [6] [µM]	IC50 [7] [µM]	IC50 [8] [µM]	IC50 [9] [µM]	IC50 [10] [µM]
CCCCCCCCCC[S+]([O-])CC(=O)C(F)(F)F (stereo unspecified)	0.0055	1.35	0.76	0.0032						
CCCCCCSCC(=O)C(F)(F)F	0.0075	2.5	1.95	0.0018						
O=C(C(=O)c1ccccc1)c1ccccc1 [BENZIL]	0.37	> 40	> 40	0.83	0.029	0.019				
CCCCCCCCCCCC[S+]([O-])CC(=O)C(F)(F)F (stereo unspecified)	0.012	0.6	0.44	0.0086						
CCCCCCCC[S+]([O-])CC(=O)C(F)(F)F (stereo unspecified)	0.2	13.9	6.5	0.023	0.005	0.016	0.0055	0.03		
CCCCCCCCS(=O)(=O)CC(=O)C(F)(F)F	0.83	22.5	14.8	0.46	0.035	0.055	0.0054	0.018		
CCCCCCCCCCSCC(=O)C(F)(F)F	0.0022	0.17	0.12	0.0013						
CCCCCCCCCCCCSCC(=O)C(F)(F)F	0.012	0.089	0.084	0.0053						
CCCCSCC(=O)C(F)(F)F	0.02	> 40	> 40	0.0045						
CCCCCCCCCCCCS(=O)(=O)CC(=O)C(F)(F)F	0.037	0.28	0.25	0.046						
CCCCCC[S+]([O-])CC(=O)C(F)(F)F (stereo unspecified)	0.28	> 40	> 40	0.033						
CCCCCCCCSCC(=O)C(F)(F)F	0.0056	0.3	0.23	0.0024	0.0019	0.0067	0.013	0.024	0.022	0.33
CCCCCCS(=O)(=O)CC(=O)C(F)(F)F	0.47	> 40	> 40	0.1						
CCCCCCCCCCC(=O)C(F)(F)F	0.025	1.8	1.25	0.0093	0.014	0.042	0.03	0.065	0.53	1.6
CCCC[S+]([O-])CC(=O)C(F)(F)F (stereo unspecified)	0.97	> 40	> 40	0.27						
CCCCCCCCCCS(=O)(=O)CC(=O)C(F)(F)F	0.063	3	2.2	0.028						
